PubChem BioAssay (NCI)
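Following 48 hours of exposure in 96-well plates, responses at five concentrations were used to interpolate endpoints linearly. At the TGI there is no net growth.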

Experiments:
Assay in all cases: inhibition of tumour cell growth, NCI panel, 48 h
BT-549 breast = system: BT-549 breast
RXF 393 renal = system: RXF 393 renal
HL-60(TB) leukemia = system: HL-60(TB) leukemia
K-562 leukemia = system: K-562 leukemia
A549 NSCLC = system: A549 NSCLC
MCF7 breast = system: MCF7 breast
OVCAR-4 ovarian = system: OVCAR-4 ovarian
OVCAR-8 ovarian = system: OVCAR-8 ovarian
RPMI-8226 leukemia = system: RPMI-8226 leukemia
CCRF-CEM leukemia = system: CCRF-CEM leukemia
ACHN renal = system: ACHN renal
UO-31 renal = system: UO-31 renal
SK-MEL-2 melanoma = system: SK-MEL-2 melanoma
HOP-62 NSCLC = system: HOP-62 NSCLC
IGROV1 ovarian = system: IGROV1 ovarian
UACC-257 melanoma = system: UACC-257 melanoma
OVCAR-5 ovarian = system: OVCAR-5 ovarian
SR leukemia = system: SR leukemia
KM12 colon = system: KM12 colon
MALME-3M melanoma = system: MALME-3M melanoma

Q: With `CC1CC[C@@]2(OC1)OC1C[C@H]3[C@@H]4CC[C@H]5CC(OC6OC(CO)C(OC7OC(CO)C(O)C(O)C7O)C(O)C6O)CCC5(C)[C@H]4CCC3(C)C1[C@@H]2C` (stereo not given in full) as the compound, how does the TGI (BT-549 breast) read?
A: Its TGI is 11 µM.

Q: And the TGI (RXF 393 renal)?
A: The TGI was 19.8 µM.

Q: What about the TGI (HL-60(TB) leukemia) of the same compound?
A: Its TGI is 18.5 µM.

Q: What about the TGI (K-562 leukemia) of the same compound?
A: Its TGI is 42.6 µM.

Q: And the TGI (A549 NSCLC)?
A: The TGI was 19.6 µM.

Q: What about the TGI (MCF7 breast) of the same compound?
A: Its TGI is 15 µM.

Q: And the TGI (OVCAR-4 ovarian)?
A: The TGI was 17.1 µM.

Q: What about the TGI (OVCAR-8 ovarian) of the same compound?
A: Its TGI is 16.7 µM.

Q: What about the TGI (RPMI-8226 leukemia) of the same compound?
A: The TGI was 45.3 µM.

Q: And the TGI (CCRF-CEM leukemia)?
A: The TGI was 21.7 µM.

Q: What about the TGI (ACHN renal) of the same compound?
A: Its TGI is 14.5 µM.

Q: What about the TGI (UO-31 renal) of the same compound?
A: Its TGI is 22.5 µM.

Q: What about the TGI (SK-MEL-2 melanoma) of the same compound?
A: Its TGI is 15.3 µM.

Q: And the TGI (HOP-62 NSCLC)?
A: Its TGI is 16.1 µM.

Q: And the TGI (IGROV1 ovarian)?
A: The TGI was 9.77 µM.

Q: What about the TGI (UACC-257 melanoma) of the same compound?
A: The TGI was 18.3 µM.

Q: What about the TGI (OVCAR-5 ovarian) of the same compound?
A: The TGI was 17.2 µM.

Q: What about the TGI (SR leukemia) of the same compound?
A: The TGI was 27.5 µM.

Q: What about the TGI (KM12 colon) of the same compound?
A: Its TGI is 15.8 µM.

Q: And the TGI (MALME-3M melanoma)?
A: The TGI was 15.7 µM.

Q: For `c1ccc2c(c1)CCN2CCc1c[nH]c2ccccc12`, which TGI (BT-549 breast) is on record?
A: The TGI was over 10 µM.

Q: And the TGI (RXF 393 renal)?
A: Its TGI is over 10 µM.

Q: What about the TGI (HL-60(TB) leukemia) of the same compound?
A: Its TGI is over 10 µM.

Q: And the TGI (K-562 leukemia)?
A: Its TGI is over 10 µM.

Q: And the TGI (A549 NSCLC)?
A: Its TGI is over 10 µM.

Q: What about the TGI (MCF7 breast) of the same compound?
A: The TGI was over 10 µM.

Q: What about the TGI (OVCAR-4 ovarian) of the same compound?
A: The TGI was over 10 µM.

Q: What about the TGI (OVCAR-8 ovarian) of the same compound?
A: Its TGI is over 10 µM.

Q: What about the TGI (RPMI-8226 leukemia) of the same compound?
A: Its TGI is over 10 µM.

Q: What about the TGI (CCRF-CEM leukemia) of the same compound?
A: The TGI was over 10 µM.

Q: And the TGI (ACHN renal)?
A: Its TGI is over 10 µM.

Q: And the TGI (UO-31 renal)?
A: Its TGI is over 10 µM.

Q: What about the TGI (SK-MEL-2 melanoma) of the same compound?
A: Its TGI is over 10 µM.

Q: What about the TGI (HOP-62 NSCLC) of the same compound?
A: Its TGI is over 10 µM.

Q: What about the TGI (IGROV1 ovarian) of the same compound?
A: The TGI was over 10 µM.

Q: What about the TGI (UACC-257 melanoma) of the same compound?
A: Its TGI is over 10 µM.

Q: And the TGI (OVCAR-5 ovarian)?
A: The TGI was over 10 µM.

Q: And the TGI (SR leukemia)?
A: The TGI was over 10 µM.

Q: What about the TGI (KM12 colon) of the same compound?
A: The TGI was over 10 µM.

Q: And the TGI (MALME-3M melanoma)?
A: The TGI was over 10 µM.

Q: For `Cc1nnc2sc(-c3ccc(-c4ccccc4Cl)o3)nn12`, which TGI (BT-549 breast) is on record?
A: The TGI was 60.3 µM.

Q: And the TGI (RXF 393 renal)?
A: The TGI was over 100 µM.

Q: And the TGI (HL-60(TB) leukemia)?
A: Its TGI is 63.3 µM.

Q: What about the TGI (K-562 leukemia) of the same compound?
A: Its TGI is 56.8 µM.

Q: And the TGI (A549 NSCLC)?
A: The TGI was over 100 µM.

Q: What about the TGI (MCF7 breast) of the same compound?
A: Its TGI is over 100 µM.

Q: What about the TGI (OVCAR-4 ovarian) of the same compound?
A: Its TGI is over 100 µM.

Q: What about the TGI (OVCAR-8 ovarian) of the same compound?
A: The TGI was 53.1 µM.

Q: What about the TGI (RPMI-8226 leukemia) of the same compound?
A: The TGI was 60 µM.

Q: And the TGI (CCRF-CEM leukemia)?
A: Its TGI is over 100 µM.

Q: What about the TGI (ACHN renal) of the same compound?
A: The TGI was over 100 µM.

Q: And the TGI (UO-31 renal)?
A: Its TGI is over 100 µM.

Q: And the TGI (SK-MEL-2 melanoma)?
A: The TGI was 86.7 µM.

Q: And the TGI (HOP-62 NSCLC)?
A: Its TGI is over 100 µM.

Q: And the TGI (IGROV1 ovarian)?
A: Its TGI is over 100 µM.

Q: What about the TGI (UACC-257 melanoma) of the same compound?
A: The TGI was over 100 µM.

Q: What about the TGI (OVCAR-5 ovarian) of the same compound?
A: The TGI was over 100 µM.

Q: And the TGI (SR leukemia)?
A: Its TGI is 53.6 µM.

Q: What about the TGI (KM12 colon) of the same compound?
A: The TGI was over 100 µM.

Q: And the TGI (MALME-3M melanoma)?
A: Its TGI is over 100 µM.
